Test results published in patent publication EP2924045A1, “New agents for the treatment of cancer” (Medizinische Universität Wien, priority 2014, dated 2015).

Key:
[1] = Stability test in minimal essential medium; format: physicochemical
cell viability = assay: MTT-based cell viability under normoxic and hypoxic conditions; conditions: 72 h treatment
Experimental: (§1) Cells were plated (2x10^3 cells/well) in 96-well plates and allowed to recover for 24 h. Subsequently, the dissolved drugs were added. After 72 h exposure, the proportion of viable cells was determined by MTT assay following the manufacturer's recommendations (EZ4U, Biomedica, Vienna, Austria). Cytotoxicity was expressed as IC50 values calculated from full dose-response curves using Graph Pad Prism software.
(§2) Cells were plated in 96- or 6-well plates, respectively, in an HERA cell 150i (Thermo Scientific) with at 1% O2/5% CO2 level for indicated time points (72 h and 4 h for MTT assays and protein isolation, respectively) before analysis/harvesting.
As a first step, the anticancer activity of the novel Co(III) complex was tested in comparison to the metal-free ligand under normoxic and hypoxic conditions as shown in Figures 5 and 6A after 72 h treatment cell viability was measured using a MTT-based system. Values given are means ± standard deviation (SD) of one representative experiment performed in triplicates (Statistical analysis: t-test; ***p< 0.001 ^a: difference between L2 and 1a; ^b: difference between 1a normoxia and 1a hypoxia).

EGFR = assay: Western blot of EGFR inhibition in A431 and Calu3 cells under normoxia and hypoxia; format: cell-based; conditions: 4 h treatment, EGF 50 ng/ml for 15 min
Experimental: as §2
Proteins were isolated, resolved by SDS/PAGE, and transferred onto a polyvinylidenedifluoride membrane for Western blotting by routine methods. The following antibodies were used: EGFR, pEGFR (Tyr1068), ERK1/2 (p44/42 MAPK), and pERK (Thr202/Tyr204) (all polyclonal rabbit - Cell Signaling Technology, Beverly, MA, USA). β-actin was monoclonal mouse AC-15 (Sigma). All primary antibodies were used in 1:1000 dilutions. Additionally, horseradish peroxidase-labelled secondary antibodies from Santa Cruz Biotechnology were used at working dilutions of 1:10000.

A431 xenografts = assay: A431 xenograft tumour growth in SCID mice; format: in vivo; conditions: 5 mg/kg i.v. or 25 mg/kg i.p.; efficacy comparable to erlotinib, especially upon intraperitoneal application
From the text: (§3) Six- to 8-week-old female CB-17 scid/scid (SCID) mice were purchased from Harlan Laboratories (San Pietro al Natisone, Italy). The animals were kept in a pathogen-free environment and every procedure was done in a laminar airflow cabinet. The experiments were done according to the regulations of the Ethics Committee for the Care and Use of Laboratory Animals at the Medical University Vienna, The U.S. Public Health Service Policy on Human Care and Use of Laboratory Animals as well as the United Kingdom Coordinating Committee on Cancer Prevention Research's Guidelines for the Welfare of Animals in Experimental Neoplasia.
(§4) This is of interest, as Calu3 xenografts are characterized by a rather specific tumor histology, where small tumour islands are surrounded by murine fibroblasts. Consequently, in these xenografts a larger tumor volume might be necessary for the development of hypoxic conditions and, thus, activation of 1b.

Calu3 xenografts = assay: Calu3 xenograft tumour growth in SCID mice; format: in vivo; conditions: when a tumour size of more than 200 mm^2 was reached
From the text: as §3, §4

A431 = assay: MTT cytotoxicity assay, A431 cells; format: cell-based; conditions: Homo sapiens, A-431; MTT assay after 72 h treatment; wild-type EGFR-overexpressing erlotinib-sensitive A431; read-out: Inhibition of Cell Growth (IC50 µM) A431
Experimental: Cell cultures were periodically checked for Mycoplasma contamination.
Subsequently, the dissolved drugs were added. […] Cytotoxicity was expressed as IC50 values calculated from full dose-response curves using Graph Pad Prism software.

H1975 = assay: MTT cytotoxicity assay, H1975 cells; format: cell-based; conditions: Homo sapiens, NCI-H1975; MTT assay after 72 h treatment; H1975 with resistance-conferring EGFR mutation T790M; read-out: Inhibition of Cell Growth (IC50 µM) H1975
Experimental: The human NSCLC cell lines A431 (wt EGFR-overexpressing and erlotinib-sensitive) and H1975 (EGFR mutation at L858R as well as T790M and erlotinib-resistant) were purchased from American Type Culture Collection (ATCC), Rockville, MD, USA and cultivated unless otherwise indicated in humidified incubators (37°C, 21% O2, 5% CO2) in RPMI 1640 medium containing 10% fetal calf serum (PAA, Linz Austria). Cell cultures were periodically checked for Mycoplasma contamination.
as §1
(§5) As a first step MTT assays (after 72 h treatment) performed in wild-type EGFR-overexpressing erlotinib-sensitive A431 and Calu3 cells as well as in H1975 cells, which harbour a resistance-conferring EGFR mutation T790M (Table 1). […] Only in Calu3 cells activity in the low µM range was observed. In contrast, L2 containing the smallest chelating moiety had IC50 values in the low µM range in both erlotinib-responsive models. […] Table 1. Anticancer activity (IC50 values)

Calu3 = assay: MTT cytotoxicity assay, Calu3 cells; format: cell-based; conditions: Homo sapiens, Calu-3; MTT assay after 72 h treatment; wild-type EGFR-overexpressing erlotinib-sensitive Calu3; read-out: Inhibition of Cell Growth (IC50 µM) Calu3
Experimental: as §1, §5

EGFR signaling pathway = assay: Western blot of EGFR signaling (pERK, pEGFR) in EGF-stimulated cells; format: cell-based; conditions: EGF-stimulated cells (HCC827 per Fig. 3), 4 h drug incubation, Western blotting

CC(=O)C=C(C)[O-].CC(=O)C=C(C)[O-].F[P-](F)(F)(F)(F)F.NCCNc1ccc2ncnc(Nc3cccc(Br)c3)c2c1.[Co+3] [Compound 1a, Bis(2,4-pentanedionato) N^6-(2-aminoethyl)-N^4-(3-bromophenyl) quinazoline-4,6-diamine cobalt(III) hexafluorophosphate]
stable in minimal essential medium [1]: at least 24 h | anticancer activity, hypoxia (cell viability; hypoxia (1% O2)): significantly increased | anticancer activity (cell viability), normoxic conditions (cell viability; normoxic conditions, up to the highest tested concentration of 25 µM): widely inactive | EGFR inhibitory potential, hypoxia (EGFR; hypoxia): potent activity similar to the metal-free ligand L2 | EGFR inhibitory potential, normoxic conditions (EGFR; normoxic conditions): distinctly reduced

CC(=O)C=C(C)[O-].CC(=O)C=C(C)[O-].NCCNc1ccc2ncnc(Nc3cccc(Br)c3)c2c1.[Cl-].[Co+3] [Compound 1b, Bis(2,4-pentanedionato) N^6-(2-aminoethyl)-N^4-(3-bromophenyl) quinazoline-4,6-diamine cobalt(III) chloride]
stable in minimal essential medium [1]: at least 24 h | tumor growth of A431 xenografts (A431 xenografts): potently inhibited tumor growth | tumor growth of Calu3 xenografts (Calu3 xenografts): induced distinct tumor regression

Brc1cccc(Nc2ncnc3ccc(N=Cc4ccccn4)cc23)c1 [Compound L1, N^4-(3-bromophenyl)-N^6-(pyridin-2-ylmethylene) quinazoline-4,6-diamine]
IC50 (A431): > 25 µM | IC50 (H1975): 20.4 ± 3.8 µM | IC50 (Calu3): 3.5 ± 0.08 µM

Cl.Cl.NCCNc1ccc2ncnc(Nc3cccc(Br)c3)c2c1 [Compound L2, N^6-(2-aminoethyl)-N^4-(3-bromophenyl)quinazoline-4,6-diamine dihydrochloride]
IC50 (A431): 9.15 ± 0.47 µM | IC50 (H1975): 15.5 ± 2.18 µM | IC50 (Calu3): 2 ± 0.52 µM | inhibitory effects on ERK and EGFR phosphorylation levels (EGFR signaling pathway): most potent EGFR inhibitor with activity similar to erlotinib

C#Cc1cccc(Nc2ncnc3cc(OCCOC)c(OCCOC)cc23)c1 [erlotinib, reference compound]
IC50 (H1975): > 25 µM | IC50 (Calu3): 0.74 ± 0.02 µM
